One compound from patent publication US8697721B2, “Chromen-2-one derivatives and their use as monoamine neurotransmitter re-uptake inhibitors” (Aniona APS, priority 2009, dated 2014) can be followed below.

Each structure is given as a SMILES string. Counter-ions that a name gives are not always drawn.

Holding throughout (type): biochemical
The target of assay [1] is T1, serotonine (5-HT) reuptake in synaptosomes (Rattus norvegicus, UniProt P31652).
T1 construct: in synaptosomes as described in WO 97/16451; from tissue
The experiment in a line: In vitro inhibition of 3H-5-HT reuptake in synaptosomes. Particulars: mean ± spread (n), read-out: 5-HT-uptake IC50. Here is the method:
(§1) The compound was tested for its ability to inhibit the reuptake of the monoamine neurotransmitters dopamine (DA) noradrenaline (NA) and serotonine (5-HT) in synaptosomes as described in WO 97/16451.
(§2) The test values are given as IC50 (the concentration (μM) of the test substance which inhibits the specific binding of ^3H-DA, ^3H-NA, or ^3H-5-HT by 50%).

Assay [2] deals with T2, dopamine (DA) reuptake in synaptosomes (Rattus norvegicus, UniProt P23977).
T2 construct: in synaptosomes as described in WO 97/16451; from tissue
Kind of assay: In vitro inhibition of 3H-DA reuptake in synaptosomes. Particulars: mean ± spread (n), read-out: DA-uptake IC50. Here is the method: as §1, §2

The target in assay [3] is T3, noradrenaline (NA) reuptake in synaptosomes (Rattus norvegicus, UniProt Q63380).
T3 construct: in synaptosomes as described in WO 97/16451; from tissue
The experiment in a line: In vitro inhibition of 3H-NA reuptake in synaptosomes. Particulars: mean ± spread (n), read-out: NA-uptake IC50. Here is the method:
as §1, §2

T1 sequence (P31652 whole entry): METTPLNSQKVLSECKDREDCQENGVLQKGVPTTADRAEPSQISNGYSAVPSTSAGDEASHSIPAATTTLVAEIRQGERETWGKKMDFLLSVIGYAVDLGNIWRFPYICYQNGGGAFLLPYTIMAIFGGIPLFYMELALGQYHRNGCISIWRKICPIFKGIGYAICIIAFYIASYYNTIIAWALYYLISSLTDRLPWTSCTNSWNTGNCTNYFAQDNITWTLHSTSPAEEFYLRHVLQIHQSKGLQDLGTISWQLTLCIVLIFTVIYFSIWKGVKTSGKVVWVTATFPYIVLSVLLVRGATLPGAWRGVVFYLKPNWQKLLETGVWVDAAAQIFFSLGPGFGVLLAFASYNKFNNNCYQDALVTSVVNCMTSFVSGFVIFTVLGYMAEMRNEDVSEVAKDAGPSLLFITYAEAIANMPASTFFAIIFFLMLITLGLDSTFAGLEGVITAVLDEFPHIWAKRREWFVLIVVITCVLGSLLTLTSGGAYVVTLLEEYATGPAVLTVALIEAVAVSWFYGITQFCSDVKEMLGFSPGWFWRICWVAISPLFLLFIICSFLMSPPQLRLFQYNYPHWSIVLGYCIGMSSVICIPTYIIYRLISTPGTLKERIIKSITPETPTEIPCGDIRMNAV
T3 sequence (Q63380 1-617): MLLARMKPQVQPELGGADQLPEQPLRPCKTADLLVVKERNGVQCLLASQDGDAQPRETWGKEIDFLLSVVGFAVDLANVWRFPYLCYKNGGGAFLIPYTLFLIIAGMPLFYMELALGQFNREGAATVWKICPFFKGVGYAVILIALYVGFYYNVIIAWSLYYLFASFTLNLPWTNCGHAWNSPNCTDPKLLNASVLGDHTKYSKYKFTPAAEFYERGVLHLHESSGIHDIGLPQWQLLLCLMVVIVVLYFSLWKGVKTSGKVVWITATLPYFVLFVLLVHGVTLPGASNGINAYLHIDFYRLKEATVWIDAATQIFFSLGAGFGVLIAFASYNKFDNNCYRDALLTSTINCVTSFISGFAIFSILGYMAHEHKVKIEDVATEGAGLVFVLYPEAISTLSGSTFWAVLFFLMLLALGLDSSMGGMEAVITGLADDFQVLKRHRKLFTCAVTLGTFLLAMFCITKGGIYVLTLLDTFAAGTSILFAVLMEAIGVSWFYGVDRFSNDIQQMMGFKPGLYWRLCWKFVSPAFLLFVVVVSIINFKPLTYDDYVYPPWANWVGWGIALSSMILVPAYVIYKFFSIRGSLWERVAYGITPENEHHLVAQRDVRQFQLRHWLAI
T2 sequence (P23977 whole entry): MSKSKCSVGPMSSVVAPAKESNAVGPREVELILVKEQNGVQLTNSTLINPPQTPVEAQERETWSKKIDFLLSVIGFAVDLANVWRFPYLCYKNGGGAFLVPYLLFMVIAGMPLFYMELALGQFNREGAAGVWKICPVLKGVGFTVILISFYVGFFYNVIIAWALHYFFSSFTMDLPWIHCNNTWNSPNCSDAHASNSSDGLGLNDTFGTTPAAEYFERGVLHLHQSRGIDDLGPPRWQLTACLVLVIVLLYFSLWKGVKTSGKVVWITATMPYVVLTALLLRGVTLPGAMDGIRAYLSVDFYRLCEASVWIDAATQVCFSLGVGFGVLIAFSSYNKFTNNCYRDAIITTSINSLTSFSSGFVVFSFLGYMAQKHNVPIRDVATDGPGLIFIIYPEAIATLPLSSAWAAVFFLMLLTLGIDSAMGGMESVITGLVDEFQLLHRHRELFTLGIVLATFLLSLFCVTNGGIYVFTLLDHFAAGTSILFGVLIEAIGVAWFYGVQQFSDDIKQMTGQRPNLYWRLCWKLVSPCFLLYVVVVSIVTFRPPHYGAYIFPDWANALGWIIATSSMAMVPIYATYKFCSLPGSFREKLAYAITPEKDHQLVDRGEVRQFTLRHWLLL

Broadly, the IC50 is the midpoint of a concentration-inhibition curve. Take `Cc1cc2ccc(O[C@@H]3C[C@H]4CC[C@@H](C3)N4)cc2oc1=O` [Compound 1.1, exo-7-[(8-Aza-bicyclo[3.2.1]oct-3-yl)oxy]-3-methyl-chromen-2-one hydrochloric Acid Salt]: the IC50 in assay [1] was 0.76 nM; in assay [2] it was 170 ± 21 nM; in assay [3], 11 ± 6.1 nM.
